Test results published in US20240408100A1, “TREATMENT METHODS FOR SUBJECTS HAVING CANCER WITH A DYSREGULATED MAPK AND/OR PI3K PATHWAY” (TAIHO PHARMACEUTICAL CO., LTD., priority 2021, published 2024).
Blank lines part the entries; values can stand above or below the molecule they belong to.

Assays:
LS180 = assay: 3-day growth inhibition assay; format: cell-based; conditions: Homo sapiens; LS180 (Colon), KRAS p.G12D, PIK3CA p.H1047R, PTEN p.I67K; read-out: Growth inhibition (IC50: nmol/L)
Protocol: (§1) The IC50 values for each compound in cell lines used in a series of animal experiments evaluating the antitumor effects of Compound (1) on KRAS mutant tumor xenografts were determined by a 3-day growth inhibition assay (Table 7).

LU65 = assay: 3-day growth inhibition assay; format: cell-based; conditions: Homo sapiens, Lu-65; LU65 (NSCLC), KRAS p.G12C; read-out: Growth inhibition (IC50: nmol/L)
Protocol: as §1

SW1573 = assay: 3-day growth inhibition assay; format: cell-based; conditions: Homo sapiens; SW1573 (NSCLC), KRAS p.G12C, PIK3CA p.K111E; read-out: Growth inhibition (IC50: nmol/L)
Protocol: as §1

[1] = system: SW1573 human lung tumor xenografts; conditions: 30 mg/kg/day
[2] = system: LU65 human lung tumor xenografts; assay: antitumor effect in mice with LU65 xenograft tumors; conditions: 30 mg/kg/day
Protocol: The tumor volumes and body weights of animals were recorded.

BT483 = assay: growth inhibition assay, NF1 mutant cell line; format: cell-based; conditions: Homo sapiens, BT-483; BT483, ER+ breast, NF1 p.R1204W
Description: (§2) In order to investigate the growth inhibitory effect of Compound (1) in NF1 mutant cancer cell lines, the IC50 values of growth inhibition assay were obtained and compared then in Table 2.
(§3) In this experiment, to compare the growth inhibitory effect of Compound (1) with those of MAPK and PI3K signaling inhibitors, the IC50 values of trametinib (as a MEK inhibitor), and Alpelisib (as a PI3K inhibitor) were obtained and compared.

H1838 = assay: growth inhibition assay, NF1 mutant cell line; format: cell-based; conditions: Homo sapiens, NCI-H1838; H1838, lung, NF1 p.N184Qfs*17
Description: as §2, §3

HCC202 = assay: growth inhibition assay, NF1 mutant cell line; format: cell-based; conditions: HCC202, HER2+ breast, NF1 p.X465_splice
Description: as §2, §3

HCT116 = assay: growth inhibition assay, NF1 mutant cell line; format: cell-based; conditions: Homo sapiens, HCT-116; HCT116, colon, NF1 p.P678Rfs*10, p.P388T
Description: as §2, §3

MDA-MB-175VII = assay: growth inhibition assay, NF1 mutant cell line; format: cell-based; conditions: Homo sapiens, ER+ breast, NF1 p.1679Dfs*21
Description: as §2, §3

MDA-MB-231 = assay: growth inhibition assay, NF1 mutant cell line; format: cell-based; conditions: Homo sapiens; MDA-MB-231, TN breast, NF1 p.T467Hfs*3
Description: as §2, §3

MeWo = assay: growth inhibition assay, NF1 mutant cell line; format: cell-based; conditions: Homo sapiens, melanoma, NF1 p.Q1336*
Description: as §2, §3

RKO = assay: growth inhibition assay, NF1 mutant cell line; format: cell-based; conditions: Homo sapiens, colon
Description: as §2, §3

NF1 mutant cell lines = assay: growth inhibition assay, summary over the panel; format: cell-based; conditions: range over the cell lines of Table 2; read-out: IC50 values, range over NF1 mutant cell lines
Description: as §2, §3

[3] = system: MCF7 cells (control and NF1 knockdown); assay: immunoblotting of target inhibition and apoptosis induction; format: cell-based, human
Protocol: To investigate the mechanism of action of Compound (1) in inhibiting the growth of NF1 knockdown breast cancer cells, Compound (1), trametinib, Alpelisib, and fulvestrant were exposed to NF1-knockdown MCF7 and T47D cells at indicated final concentration for 24 hours. NF1, pPRAS40 Thr246, pYB1 Ser102, pS6RP Ser235/236, ERα, and cleaved PARP were detected by immunoblotting.

AsPC-1 = assay: 3-day growth inhibition assay; format: cell-based; conditions: Homo sapiens, ASPC1; AsPC-1 (Pancreas), KRAS p.G12D; read-out: Growth inhibition (IC50: nmol/L)
Protocol: as §1

[4] = system: LS180 human colorectal tumor xenografts; assay: antitumor effect in mice with LS180 xenograft tumors; format: in vivo; conditions: 1 mg/kg/day
Protocol: The oncogenic KRAS mutations are diverse, including not only G12C but also G12X and G13X in the mutation hotspot Glycine at […]. To determine whether Compound (1), which targets downstream of MAPK and PI3K signaling, is effective against G12D mutated cancers, an efficacy experiment of Compound (1) was conducted using subcutaneously transplanted LS180 tumor derived from colorectal cancers with KRAS G12D and PIK3CA and PTEN gene alterations.
Evaluation was conducted by comparing the efficacy of 80 mg/kg/day of Compound (1) with that of 1 mg/kg/day MEK inhibitor trametinib used as a reference group.

[5] = system: AsPC-1 human pancreatic tumor xenografts; conditions: 1 mg/kg/day
Protocol: All treatments were administered every day by oral gavage. The tumor volumes and body weights of animals were recorded.

[6] = system: ER+/HER2− breast cancer cell lines; assay: immunoblotting, combination with fulvestrant, presence and absence of estrogen and NF1; format: cell-based
Protocol: The actual standard of care for ER+/HER2− breast cancer uses the adjuvant therapies such as tamoxifen, letrozole, or fulvestrant. Patients with recurrent or refractory tumors are treated with additional use of CDK4/6 inhibitors or Alpelisib for PIK3CA-mutated cancers.

SMILES: C=CC(=O)N1CCN(c2nc(=O)n(-c3c(C)ccnc3C(C)C)c3nc(-c4c(O)cccc4F)c(F)cc23)[C@@H](C)C1 [AMG510, sotorasib, reference compound]
IC50 (LS180): > 10000 nmol/L | IC50 (LU65): 7.17 nmol/L | IC50 (SW1573): > 10000 nmol/L | T/C ratio (%) ([1]; Day 15): 54% | Number of deaths ([1]; qd Day 1-14, po): 0 | Tumor volume (mm^3) Day 15 Mean ± SE ([1]; qd Day 1-14, po): 429.2 ± 60.2 mm^3 | Number of deaths [2]: 0 | T/C ratio (%) ([2]; Day 13): 46% | Tumor volume (mm^3) Day 13 Mean ± SE ([2]; qd, po): 1067.9 ± 139.4 mm^3

IC50 (BT483): 179 nM | IC50 (H1838): 6410 nM | IC50 (HCC202): 918 nM | IC50 (HCT116): 6340 nM | IC50 (MDA-MB-175VII): 1090 nM | IC50 (MDA-MB-231): > 10000 nM
SMILES: Cc1nc(NC(=O)N2CCC[C@H]2C(N)=O)sc1-c1ccnc(C(C)(C)C(F)(F)F)c1 [Alpelisib]
IC50 (MeWo): > 10000 nM | IC50 (RKO): 2700 nM | IC50 (NF1 mutant cell lines): ≥ 179 nM | apoptosis induction (cleaved PARP signal) ([3]; MCF7 NF1 knockdown cells versus control cells): attenuated | apoptosis induction (cleaved PARP signal) ([3]; MCF7 control cells (non-targeting siRNA), single agent): induced apoptosis

SMILES: CC(=O)Nc1cccc(-n2c(=O)n(C3CC3)c(=O)c3c(Nc4ccc(I)cc4F)n(C)c(=O)c(C)c32)c1 [Trametinib]
IC50 (BT483): > 2000 nM | IC50 (H1838): > 2000 nM | IC50 (HCC202): > 2000 nM | IC50 (HCT116): 16 nM | IC50 (MDA-MB-175VII): 40 nM | IC50 (MDA-MB-231): > 10000 nM | IC50 (MeWo): 176 nM | IC50 (RKO): 40 nM | IC50 (NF1 mutant cell lines): ≥ 16 nM | IC50 (AsPC-1): 0.693 nmol/L | IC50 (LS180): 9 nmol/L | IC50 (LU65): 0.739 nmol/L | IC50 (SW1573): > 10000 nmol/L | Number of deaths [4]: 0 | T/C ratio (%) ([4]; Day 15): 76% | Tumor volume (mm^3) Day 15 Mean ± SE ([4]; qd Day 1-14, po): 1129.3 ± 73.5 mm^3 | Number of deaths [5]: 0 | T/C ratio (%) ([5]; Day 22): 51% | Tumor volume (mm^3) Day 22 Mean ± SE ([5]; qd Day 1-21, po): 482.5 ± 25.6 mm^3

SMILES: C[C@]12CC[C@@H]3c4ccc(O)cc4C[C@@H](CCCCCCCCC[S+]([O-])CCCC(F)(F)C(F)(F)F)[C@H]3[C@@H]1CC[C@@H]2O (some centres unmarked) [fulvestrant]
apoptosis induction ([6]; single agent, presence or absence of estrogen, NF1 wildtype and NF1 knockdown cells): little apoptosis inducing activity | ER reduction ([6]; treatment with fulvestrant alone): ER reduction was observed clearly
